Reference: patent publication US7659404B2, “Broad spectrum 2-(substituted-amino)-benzothiazole sulfonamide HIV protease inhibitors” (Tibotec Pharmaceuticals Ltd., priority 2001, dated 2010)
Like-named read-outs stand apart in the source and are kept apart here.

Columns and labels:
[1] = tested on: clinically isolated HIV strain P; experiment: Antiviral spectrum, cellular assay (fold resistance), strain P; assay type: cell-based; details: FR=EC50(mutant strain)/EC50(HIV-1 strain LAI)
Method: (§1) HIV- or mock-infected MT4 cells were incubated for five days in the presence of various concentrations of the inhibitor. At the end of the incubation period, all HIV-infected cells have been killed by the replicating virus in the control cultures in the absence of any inhibitor. Cell viability is measured by measuring the concentration of MTT, a yellow, water soluble tetrazolium dye that is converted to a purple, water insoluble formazan in the mitochondria of living cells only. Upon solubilization of the resulting formazan crystals with isopropanol, the absorbance of the solution is monitored at 540 nm. The values correlate directly to the number of living cells remaining in the culture at the completion of the five day incubation. The inhibitory activity of the compound was monitored on the virus-infected cells and was expressed as EC50 and EC90. These values represent the amount of the compound required to protect 50% and 90%, respectively, of the cells from the cytopathogenic effect of the virus. The toxicity of the compound was measured on the mock-infected cells and was expressed as CC50, which represents the concentration of compound required to inhibit the growth of the cells by 50%. The selectivity index (SI) (ratio CC50/EC50) is an indication of the selectivity of the anti-HIV activity of the inhibitor.
(§2) Because of the increasing emergence of drug resistant HIV strains, the present compounds were tested for their potency against clinically isolated HIV strains harboring several mutations. These mutations are associated with resistance to protease inhibitors and result in viruses that show various degrees of phenotypic cross-resistance to the currently commercially available drugs such as for instance saquinavir, ritonavir, nelfinavir, indinavir and amprenavir.
(§3) As a measure of the broad spectrum activity of the present compounds, the fold resistance (FR) defined as FR=EC50(mutant strain)/EC50(HIV-1 strain LAI).

[2] = tested on: clinically isolated HIV strain R; experiment: Antiviral spectrum, cellular assay (fold resistance), strain R; assay type: cell-based; details: FR=EC50(mutant strain)/EC50(HIV-1 strain LAI)
Method: as §1, §2, §3

virus strain S (R13080) = experiment: microbe, parasite or virus in culture; assay type: cell-based, HIV; details: FR=EC50(mutant strain)/EC50(HIV-1 strain LAI); strain S
How it was run: (§4)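 MT4 cells, HIV or mock infection, 5 d with compound dilutions; MTT readout, formazan in isopropanol, A540. EC50/EC90 = conc. protecting 50/90% of cells from CPE; CC50 from mock-infected cells. FR = EC50 mutant/EC50 LAI.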

virus strain F (R13025) = experiment: microbe, parasite or virus in culture; assay type: cell-based, HIV; details: FR=EC50(mutant strain)/EC50(HIV-1 strain LAI); strain F
How it was run: as §4

[3] = tested on: clinically isolated HIV strain Q; experiment: Antiviral spectrum, cellular assay (fold resistance), strain Q; assay type: cell-based; details: FR=EC50(mutant strain)/EC50(HIV-1 strain LAI)
Method: as §1, §2, §3

[4] = tested on: clinically isolated HIV strain C; experiment: Antiviral spectrum, cellular assay (fold resistance), strain C; assay type: cell-based; details: FR=EC50(mutant strain)/EC50(HIV-1 strain LAI)
Method: as §1, §2, §3

[5] = tested on: clinically isolated HIV strain E; experiment: Antiviral spectrum, cellular assay (fold resistance), strain E; assay type: cell-based; details: FR=EC50(mutant strain)/EC50(HIV-1 strain LAI)
Method: as §1, §2, §3

[6] = tested on: clinically isolated HIV strain L; experiment: Antiviral spectrum, cellular assay (fold resistance), strain L; assay type: cell-based; details: FR=EC50(mutant strain)/EC50(HIV-1 strain LAI)
Method: as §1, §2, §3

[7] = tested on: clinically isolated HIV strain G; experiment: Antiviral spectrum, cellular assay (fold resistance), strain G; assay type: cell-based; details: FR=EC50(mutant strain)/EC50(HIV-1 strain LAI)
Method: as §1, §2, §3

[8] = tested on: clinically isolated HIV strain N; experiment: Antiviral spectrum, cellular assay (fold resistance), strain N; assay type: cell-based; details: FR=EC50(mutant strain)/EC50(HIV-1 strain LAI)
Method: as §1, §2, §3

[9] = tested on: clinically isolated HIV strain T; assay type: cell-based; details: FR=EC50(mutant strain)/EC50(HIV-1 strain LAI)
How it was run: as §4

[10] = tested on: clinically isolated HIV strain O; assay type: cell-based; details: FR=EC50(mutant strain)/EC50(HIV-1 strain LAI)
How it was run: as §4

[11] = tested on: clinically isolated HIV strain H; assay type: cell-based; details: FR=EC50(mutant strain)/EC50(HIV-1 strain LAI)
How it was run: as §4

[12] = tested on: clinically isolated HIV strain I; assay type: cell-based; details: FR=EC50(mutant strain)/EC50(HIV-1 strain LAI)
How it was run: as §4

[13] = tested on: clinically isolated HIV strain J; assay type: cell-based; details: FR=EC50(mutant strain)/EC50(HIV-1 strain LAI)
How it was run: as §4

[14] = tested on: clinically isolated HIV strain D; experiment: Antiviral spectrum, cellular assay (fold resistance), strain D; assay type: cell-based; details: FR=EC50(mutant strain)/EC50(HIV-1 strain LAI)
Method: as §1, §2, §3

[15] = tested on: clinically isolated HIV strain B; experiment: Antiviral spectrum, cellular assay (fold resistance), strain B; assay type: cell-based; details: FR=EC50(mutant strain)/EC50(HIV-1 strain LAI)
Method: as §1, §2, §3

[16] = tested on: clinically isolated HIV strain K; experiment: Antiviral spectrum, cellular assay (fold resistance), strain K; assay type: cell-based; details: FR=EC50(mutant strain)/EC50(HIV-1 strain LAI)
Method: as §1, §2, §3

[17] = tested on: clinically isolated HIV strain M; experiment: Antiviral spectrum, cellular assay (fold resistance), strain M; assay type: cell-based; details: FR=EC50(mutant strain)/EC50(HIV-1 strain LAI)
Method: as §1, §2, §3

[18] = tested on: clinically isolated HIV strain A; experiment: Antiviral spectrum, cellular assay (fold resistance), strain A; assay type: cell-based; details: FR=EC50(mutant strain)/EC50(HIV-1 strain LAI)
Method: as §1, §2, §3

HIV-1 strain LAI = experiment: Cellular anti-HIV assay in MT4 cells (MTT), wild type laboratory strain; assay type: cell-based; details: read-out: EC50 value against HIV-1 strain LAI
Method: The compounds of the present invention were examined for anti-viral activity in a cellular assay. […] The cellular assay was performed according to the following procedure.
Cellular Assay Experimental Method:
as §1

[19] = Human immunodeficiency virus 1, 120 h, MT4 cells, five days, MTT
[20] = Human immunodeficiency virus 1, MT4, 120 h

Compound | fold resistance (FR), strain P [1] | fold resistance (FR), strain R [2] | fold resistance (FR), strain S (virus strain S (R13080)) | fold resistance (FR), strain F (virus strain F (R13025)) | fold resistance (FR), strain Q [3] | fold resistance (FR), strain C [4] | fold resistance (FR), strain L [6] | fold resistance (FR), strain G [7] | fold resistance (FR), strain N [8] | fold resistance (FR), strain T [9] | fold resistance (FR), strain O [10] | fold resistance (FR), strain H [11] | fold resistance (FR), strain I [12] | fold resistance (FR), strain J [13] | fold resistance (FR), strain D [14] | fold resistance (FR), strain A [18] | EC50 (HIV-1 strain LAI; [19]) | further results
CC(=O)Nc1nc2ccc(S(=O)(=O)N(CC(C)C)CC(O)C(Cc3ccccc3)NC(=O)OC3COC4OCCC34)cc2s1 (mixture of isomers) [Compound 1] | 0.2 | 0.7 | 1.0 | 0.8 | 0.8 | 0.7 | 0.2 | 0.3 | 1.0 | 5.1 | 0.4 | 0.9 | 0.8 | 0.5 | 0.7 | 0.4 | – | fold resistance (FR), strain E [5]: 0.6; fold resistance (FR), strain B [15]: 0.3; fold resistance (FR), strain K [16]: 0.4; fold resistance (FR), strain M [17]: 0.5
CC(C)CN(CC(O)C(Cc1ccccc1)NC(=O)OC1COC2OCCC12)S(=O)(=O)c1ccc2nc(NC(=O)CN(C)C)sc2c1 (mixture of isomers) [Compound 3] | 0.4 | 0.5 | 1.8 | 1.1 | 0.5 | 0.4 | 0.3 | 0.4 | 2.3 | 34.2 | 1.0 | 1.0 | 0.8 | – | 0.8 | 0.4 | – | fold resistance (FR), strain E [5]: 0.4
CC(C)CN(C[C@@H](O)[C@H](Cc1ccccc1)NC(=O)OC1COC2OCCC12)S(=O)(=O)c1ccc2nc(NCCN(C)C)sc2c1 (mixture of isomers) [Compound 4] | – | – | 2.9 | 2.2 | – | – | – | – | – | 48.8 | 0.5 | 1.9 | 1.2 | 0.5 | – | – | < 0.05 µM | –
CC(C)CN(CC(O)C(Cc1ccccc1)NC(=O)OC1COC2OCCC12)S(=O)(=O)c1ccc2nc(NC(=O)CN(C)C)sc2c1 (stereo not drawn) [Compound 11] | 0.3 | 0.5 | 1.1 | 0.7 | 0.0 | 0.5 | 0.3 | 0.5 | 1.6 | 7.3 | 0.7 | 0.9 | 0.5 | 0.4 | 0.3 | 0.3 | < 0.05 µM | fold resistance (FR), strain B [15]: 0.4; fold resistance (FR), strain K [16]: 0.4; fold resistance (FR), strain M [17]: 0.4
CC(=O)N(CCN1CCCC1)c1nc2ccc(S(=O)(=O)N(CC(C)C)CC(O)C(Cc3ccccc3)NC(=O)OC3COC4OCCC34)cc2s1 (stereo not drawn) [Compound 19] | – | – | 2.2 | 2.4 | – | – | – | – | – | 10.5 | 0.5 | 2.1 | 1.1 | 0.6 | – | – | < 0.05 µM | –
CC(C)CN(CC(O)C(Cc1ccccc1)NC(=O)OC1COC2OCCC12)S(=O)(=O)c1ccc2nc(NCC[N+](C)(C)[O-])sc2c1 (stereo not drawn) [Compound 27] | – | – | 5.1 | 1.4 | – | – | – | – | – | 5.4 | 0.6 | 1.2 | 1.3 | 0.7 | – | – | – | EC50 (HIV-1 strain LAI; [20]): > 0.5 µM
CC(=O)Nc1nc2ccc(S(=O)(=O)N(CCNc3ccccn3)CC(O)C(Cc3ccccc3)NC(=O)OC3COC4OCCC34)cc2s1 (stereo not drawn) [Compound 29] | – | – | – | – | – | – | – | – | – | – | – | – | – | – | – | – | – | EC50 (HIV-1 strain LAI; [20]): 0.05 to 0.5 µM
